# Values of other authors as cited in patent US8153109B2, “Alkylene carbonate dilution, alkylene carbonate for preparing the dilution, and aqueous reducing chemical agent” (San-Ei Kagaku Co., Ltd., priority 2006, dated 2012).
# Settings: test day 10, emulsified chemical agent, in some cases
structure (smiles),measurement,value
O=C1OCCC1S (stereo not shown) [2-mercapto-4-butyrolactone],percent decomposition of 2-mercapto-4-butyrolactone,about 30%
